# Data as given in patent US9175266B2, “Enhancement of natural killer (NK) cell proliferation and activity” (Gamida Cell Ltd., priority 2012, dated 2015).
# “Also recorded” adds a separate entry of the source.
# Experiments:
# CD3+CD56− cells = assay: T-cell fraction (CD3+CD56-) in cultures of T-cell depleted peripheral blood NK cells, by FACS; assay type: cell-based, human; settings: 21 day cultures; SR1 10 to 1000 nM vs cytokines only (SR1 0); FIG. 2
# Description: For depletion procedure, total nuclear cells from umbilical cord blood (CB), bone marrow (BM) or peripheral blood (PB) cells were layered on a Ficoll-Hypaque gradient (1.077 g/mL; Sigma), and centrifuged at 800×g for 30 minutes for separation of the mononuclear cells. The cells in the interface layer were collected and washed three times in phosphate-buffered saline (PBS) (Biological Industries, Israel) containing 0.5% HSA. Optionally, cells are not separated on the Ficoll-Hypaque gradient but washed three times in phosphate-buffered saline (PBS) (Biological Industries) containing 0.5% HSA (“total mononuclear fraction”). CD3 cells were depleted using the CD3 cell isolation kit (Miltenyi Biotec Bergisch, Gladbach, Germany) and the entire CD3 negative cell fraction was cultured. […] After negative depletion the cells were counted and characterized by FACS analysis. […] To estimate number of cells in culture, cell samples were counted following staining with trypan blue. […] The cells were then washed in the above buffer and analyzed using a FACScalibur® flow cytometer (Becton Dickinson, San Jose, Calif., USA). […] Emission of 10^4 cells was measured using logarithmic amplification, and analyzed using the CellQuest software (Becton Dickinson). Cells stained with FITC, PE and APC-conjugated isotype control antibodies were used to determine background fluorescence.
# [1] = test system: human peripheral blood NK cells; assay: Ex-vivo expansion of T-cell depleted peripheral blood NK cells in culture with cytokines; assay type: cell-based
# Description: For depletion procedure, total nuclear cells from umbilical cord blood (CB), bone marrow (BM) or peripheral blood (PB) cells were layered on a Ficoll-Hypaque gradient (1.077 g/mL; Sigma), and centrifuged at 800×g for 30 minutes for separation of the mononuclear cells. The cells in the interface layer were collected and washed three times in phosphate-buffered saline (PBS) (Biological Industries, Israel) containing 0.5% HSA. Optionally, cells are not separated on the Ficoll-Hypaque gradient but washed three times in phosphate-buffered saline (PBS) (Biological Industries) containing 0.5% HSA (“total mononuclear fraction”). CD3 cells were depleted using the CD3 cell isolation kit (Miltenyi Biotec Bergisch, Gladbach, Germany) and the entire CD3 negative cell fraction was cultured. […] After negative depletion the cells were counted and characterized by FACS analysis. […] To estimate number of cells in culture, cell samples were counted following staining with trypan blue. […] In order to calculate the number of NK cells on day 0, the total number of cells seeded on day 0 was multiplied by the percent of CD56+/CD3− cells measured by the FACS on day 0. […] In order to determine the number of NK cells in culture, the total number of cells in culture was multiplied by the percent of CD56+/CD3− cells measured with the FACS on days 14 or 21. […]
# CD200R = CD200R expression on NK cell surface, by FACS; assay type: cell-based, human; settings: PB derived NK cells; SR1 10-1000 nM, 14 and 21 days, vs cytokines only; FIG. 4A
# Text: (§1) For FACS analysis cells were stained with the following fluorescent antibodies: CD15 FITC, Cat. No. 332778, CD14 FITC, Cat. No. 345784, CD3 APC, Cat. No. 345767, all from Becton Dickinson (San Jose, Calif., USA), CD62L PE, Cat. No. 304806 from BioLegend (San Diego, Calif., USA), CD56 FITC, Cat. No. 11-0569-42 from eBioscience (San Diego, Calif., USA) and CD45 PE, Cat. No. R7807 from Dako (Glostrup, Denmark) and anti-CD200R and anti-PD-1 fluorescent antibodies. The cells were washed with a PBS solution containing 1% BSA, and stained (at 4° C. for 30 min) with fluorescein isothiocyanate (FITC)- or phycoerythrin (PE)-conjugated antibodies or allophycocyanin (APC). The cells were then washed in the above buffer and analyzed using a FACScalibur® flow cytometer (Becton Dickinson, San Jose, Calif., USA). The cells were passed at a rate of up to 1000 cells/second, using a 488 nm or 661 nm argon laser beam as the light source for excitation. Emission of 10^4 cells was measured using logarithmic amplification, and analyzed using the CellQuest software (Becton Dickinson). Cells stained with FITC, PE and APC-conjugated isotype control antibodies were used to determine background fluorescence. […] NK cells were stained with specific antibodies for the specified surface markers (CD62L, CD200R, PD-1) after 3 weeks incubation with SR1, and then monitored by FACS.
# CD62L = CD62L expression on NK cell surface, by FACS; assay type: cell-based, human; settings: PB derived NK cells; SR1 10-1000 nM, 14 and 21 days, vs cytokines only; FIG. 3
# Text: as §1
# PD-1 = PD-1 expression on NK cell surface, by FACS; assay type: cell-based, human; settings: PB derived NK cells; SR1 10-1000 nM, 14 and 21 days, vs cytokines only; FIG. 4B
# Text: as §1
# human NK cells = assay: In-vivo homing and engraftment of cultured, CFSE-stained human NK cells in spleen of irradiated NSG mice; set-up: species or system NOD.Cg-Prkdcscid Il2rgtm1Wjl/SzJ (NSG) mice; settings: 15×10^6 NK cells cultured 2-3 weeks with SR1 vs without; irradiated (350 Rad) NSG mice; 4 days post infusion; FIG. 5
# Description: NK cells were expanded with or without 1000 nM SR1, as described above. After 2 weeks in culture, cells were stained with CFSE and similar numbers (15×10^6) of cells were infused into irradiated (350 Rad) NSG mice. Mice were sacrificed 4-days post infusion. Spleens were analyzed for the homing and engraftment of human NK cells based on the CFSE fluorescence, in order to distinguish them from endogenous cells. Engraftment is expressed as the % of cells staining with CFSE. Irradiated (350 Rad) NOD.Cg-Prkdcscid Il2rgtm1Wjl/SzJ (NSG) mice received 15×10^6 cells from human peripheral blood NK (T-cell depleted) cultures maintained for up to 3 weeks with SR1 or without (SR1 0) SR1. Prior to infusion NK cells were stained with CFSE. Upon sacrifice of the mice 4 days post infusion, samples of spleen were evaluated by FACS for the percent of cells that are stained with CFSE.
compound,measurement,setting,value
"CC(C)n1cnc2c(NCCc3ccc(O)cc3)nc(-c3csc4ccccc34)nc21 [SR1, 4-(2-(2-(benzo[b]thiophen-3-yl)-9-isopropyl-9H-purin-6-ylamino)ethyl)phenol]",percentages of CD3+CD56− cells (T-cell fraction),CD3+CD56− cells,less prominent than in control; also recorded: lower than in control cultures
same,cells in culture that were NK (CD56+CD3-) cells,"[1]; CD3+ or CD3+/CD19+ depleted peripheral blood mononuclear cells (2-10% NK at seeding), 2-3 weeks in culture with SR1",more than 90%
same,NK expansion (fold increase relative to day 0),"[1]; day 21, SR1 10-1000 nM with cytokines (IL-2, IL-15) vs cytokines only (SR1 0), FIG. 1",greatly increased expansion; also recorded: significantly higher
same,expression of CD200R,CD200R,reduced expression
same,expression of CD62L,CD62L,dramatically enhanced expression; also recorded: strongly enhanced expression
same,expression of PD-1,PD-1,reduced expression
same,homing and engraftment into spleen (% of cells staining with CFSE),human NK cells,significantly higher; also recorded: increased localization and engraftment
